According to patent US9884851B2, “Heterocycle-bisamide inhibitors of scavenger receptor BI” (THE BROAD INSTITUTE, INC., priority 2012, dated 2018):
Positions count from the first letter of the chain named.

Columns and labels:
[1] = target: T1, SR-BI (Mus musculus, UniProt Q61009); assay: DiI-HDL uptake assay with extended washout; format: cell-based, murine; design: expressed in transfected cells; host or cells: ldlA[mSR-BI], Chinese hamster ovary (CHO) cells lacking LDL receptor (Krieger Laboratory); conditions: 4-hour washout period
T1 sequence (Q61009 1-509): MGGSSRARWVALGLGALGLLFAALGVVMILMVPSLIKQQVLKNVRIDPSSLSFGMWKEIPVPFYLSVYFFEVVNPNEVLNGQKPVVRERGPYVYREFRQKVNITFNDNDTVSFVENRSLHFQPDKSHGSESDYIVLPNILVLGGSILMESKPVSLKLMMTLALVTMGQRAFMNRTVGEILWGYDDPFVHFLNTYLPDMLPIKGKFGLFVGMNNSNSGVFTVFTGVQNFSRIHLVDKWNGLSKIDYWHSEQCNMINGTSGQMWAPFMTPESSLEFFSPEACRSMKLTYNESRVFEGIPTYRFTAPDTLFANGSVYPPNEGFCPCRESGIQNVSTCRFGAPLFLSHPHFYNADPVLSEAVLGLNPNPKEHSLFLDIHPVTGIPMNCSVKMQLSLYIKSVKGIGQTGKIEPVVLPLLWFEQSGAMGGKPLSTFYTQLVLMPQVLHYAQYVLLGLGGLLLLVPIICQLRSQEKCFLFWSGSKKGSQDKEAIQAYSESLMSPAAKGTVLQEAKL
Description: DiI-HDL Uptake Assay with Extended Washout (SA 5: AID No. 588831)
This is another modification of the primary assay where cells are pretreated with compound but no compound is present during a 4-hour washout period or the subsequent 3-hour DiI-HDL treatment period. […] Cells were treated with compound for 3 hours, then were washed four times with PBS, once with lipoprotein-free media (Ham's F12/0.5% fatty acid-free Bovine Serum Albumin [BSA]/25 mM HEPES pH 7.4), and then returned to the incubator with lipoprotein-free media for 4 hours. Media were then removed and cells were washed with PBS before fresh lipoprotein-free media (Ham's F12/0.5% fatty acid-free Bovine Serum Albumin [BSA]/25 mM HEPES pH 7.4) was added with 10 μg protein/ml DiI-HDL. Cells took up the DiI via SR-BI over 3 hours in the absence of compound. After significant uptake of the DiI, the cells became fluorescent. The level of fluorescence correlates with the amount of DiI uptake and can be measured with a standard plate reader. The uptake of lipid (represented by DiI) was inhibited by the compound BLT-1 or with an excess of HDL untreated with DiI.

[2] = tested on: hepatitis C virus (HCV); assay: In vitro testing with Huh-7.5 cells infected with HCV; format: cell-based; conditions: for inhibition of HCV replication (in words): Huh-7.5 cells infected with Jcl 378-1 TagRFP (MOI=0.1), 3 dpi
Description: A series of tests were conducted using the compound of Formula II (CID53393835/ML279), other known inhibitors of SR-BI and controls with cells infected with hepatitis C virus (HCV). The cells (Huh-7.5 cells infected with Jcl 378-1 TagRFP (MOI=0.1) 3 dpi) were treated with the following SR-BI compounds and controls:
Three different infection protocols were followed: (1) no wash—virus inoculum was removed 4hpi and fresh medium containing compounds added without washing cells; (2) 5× wash—virus inoculum was removed 4hpi, cells were washed 5× with PBS and fresh medium containing compounds added; and (3) no wash Opt—infection were performed in serum-free OptiMem; virus inoculum was removed 4hpi and fresh medium containing compounds added without washing cells. FIG. 90 provides a comparison of the three different infection set-ups. FIG. 91 provides a comparison of two independent experiments.

[3] = target: T2, C384S SR-BI (Mus musculus, UniProt Q61009, C384S); assay: Radioactive HDL uptake assay (mutant SR-BI); format: cell-based, murine; conditions: Cys384 converted to serine
T2 construct: expressed in transfected cells; host or cells: CHO cell line lacking LDL receptors, overexpressing C384S SR-BI
T2 sequence (Q61009 1-509 C384S): T1 sequence (Q61009 1-509) with C384S
Source text: Radioactive HDL Uptake Assay (mutant SR-BI) (SA 9: AID No. 588837)
BLT-1 is known to interact at cysteine 384 of SR-BI (16). […] This assay is used to determine if the compounds work in a similar fashion to BLT-1 and require Cys384 to alter the binding of HDL particles and uptake of the lipid to the mutant SR-BI scavenger receptor, using an alternative means of labeling HDL particles and avoiding any type of fluorescence measurement. To measure this lipid uptake event, HDL particles are labeled with [^3H]cholesteryl ester and added to C384S SR-BI cells. Cells take up HDL lipid via the mutant SR-BI in 2 to 3 hours. After significant uptake of the HDL lipid, the radiolabel can be detected by liquid scintillation counting. The level of radioactivity correlates with the amount of HDL lipid uptake. The uptake of lipid from HDL particles can be inhibited by the compound BLT-1 or when co-treated with an excess of unlabeled HDL. The mSR-BI cells utilized in the assay are a CHO cell line lacking expression of the LDL receptors and overexpressing the mutant scavenger receptor, C384S SR-BI.

SMILES: CCCCCCC1CCCC1=NNC(N)=S (stereo not shown) [BLT-1, reference compound]
- IC50 ([1]; read-out: DiI-HDL uptake IC50 after 4-hour washout period): 0.6 nM
- inhibition of HCV replication (in words) ([2]; listed as 8): able to inhibit HCV replication
- inhibition of HCV replication (in words) ([2]; listed as SRB1-8): inhibited viral replication
- mean fluorescence intensity (MFI) of HCV positive cells (in words) ([2]; dose dependence): increased mean fluorescence intensity (MFI) of HCV positive cells in a dose dependent manner
- uptake of HDL in C384S mutant background (in words) [3]: cannot reduce uptake of HDL or efflux of cholesterol

SMILES: C[C@H](C(=O)NC1CCCC1)N(C(=O)Cn1nnc(-c2ccc3c(c2)OCO3)n1)C1CCCCC1 [ML279, (R)-2-(2-(5-(Benzo[d][1,3]dioxol-5-yl)-2H-tetrazol-2-yl)-N-cyclohexylacetamido)-N-cyclopentylpropanamide]
- activity after extended washout (in words) [1]: greatly attenuated
- inhibition of HCV replication (in words) ([2]; listed as 5): able to inhibit HCV replication
- inhibition of HCV replication (in words) ([2]; listed as SRB1-5): inhibited viral replication
- inhibition of virus assembly/egress (in words) ([2]; fluorescence intensity of HCV positive cells normalized to DMSO): can also inhibit virus assembly/egress
- uptake of HDL in C384S mutant background (in words) [3]: can reduce uptake and efflux in the mutant background
